Source: patent US6355799B1, “Substituted benzene compounds, process for their preparation, and herbicidal and defoliant compositions containing them” (ISK Americas Incorporated, priority 1997, dated 2002)

Key:
Format in all cases: in vivo
[1] = tested on: field corn (Zea mays L., var. Dekalb 535, CORN); assay: Post-emerge test, crop safety; conditions: post-emerge, 14 days after application, rating scale 0-100
In short: (§1)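 Each test used a mechanized track sprayer delivering 187 l/ha of acetone solution at 15–1000 g ai/ha. Post-emerge foliage at 2–3 leaves was treated with added 0.25% v/v non-ionic surfactant and bottom-watered only. Injury was assessed on day 14, where 100 means total kill.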

[2] = tested on: upland rice (Oryza sp., var. Tebonnet, RICE); assay: Post-emerge test, crop safety; conditions: post-emerge, 14 days after application, rating scale 0-100
In short: as §1

[3] = tested on: field corn (Zea mays L., var. Dekalb 535, CORN); assay: Pre-emerge test, crop safety; conditions: crop damage rating 0-100, 14 days after application
In short: (§2)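 Herbicidal damage is scored 0 (none) to 100 (complete plant death) two weeks after a simulated field spray. Rates span 15–1000 g ai/ha, delivered in acetone at 187 l/ha. For post-emergence treatments, plants have 2–3 leaves and the spray carries 0.25% v/v non-ionic surfactant.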

[4] = tested on: upland rice (Oryza sp., var. Tebonnet, RICE); assay: Pre-emerge test, crop safety; conditions: crop damage rating 0-100, 14 days after application
In short: as §2

[5] = tested on: johnsongrass (Sorghum halepense, SORHA); assay: Pre-emerge test, greenhouse herbicide activity screening; conditions: phytotoxicity rating 0-100, 14 days after application
In short: (§3)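 Plants grown in 10 cm pots of sandy loam mix received acetone-dissolved compounds through a moving flat-fan nozzle. Doses ranged from 15 to 1000 g ai/ha. Pre-emerge pots were seeded one day earlier, post-emerge pots 8–21 days earlier. Fourteen days on, each pot was graded 0–100 for damage.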

[6] = tested on: sicklepod (Cassia obtusifolia, CASOB); assay: as above; conditions: phytotoxicity rating 0-100, 14 days after application
In short: as §3

[7] = tested on: green foxtail (Setaria viridis, SETVI); assay: as above; conditions: phytotoxicity rating 0-100, 14 days after application
In short: as §3

[8] = tested on: large crabgrass (Digitaria sanguinalis, DIGSA); assay: as above; conditions: phytotoxicity rating 0-100, 14 days after application
In short: as §3

[9] = tested on: ivyleaf morningglory (Ipomoea hederacea, IPOHE); assay: as above; conditions: phytotoxicity rating 0-100, 14 days after application
In short: as §3

[10] = tested on: velvetleaf (Abutilon theophrasti, ABUTH); assay: as above; conditions: phytotoxicity rating 0-100, 14 days after application
In short: as §3

[11] = tested on: barnyardgrass (Echinochloa crus-galli, ECHCG); assay: as above; conditions: phytotoxicity rating 0-100, 14 days after application
In short: as §3

[12] = tested on: lambsquarters (Chenopodium album, CHEAL); assay: as above; conditions: phytotoxicity rating 0-100, 14 days after application
In short: as §3

[13] = tested on: johnsongrass (Sorghum halepense, SORHA); assay: Post-emerge test, greenhouse herbicide activity screening; conditions: post-emerge, 14 days after application, rating scale 0-100
In short: (§4)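 Compounds in acetone were track-sprayed at 15–1000 g ai/ha: pre-emergence onto soil sown the previous day, then top-watered to incorporate and later bottom-watered; post-emergence onto 2–3 leaf plants with 0.25% v/v surfactant, bottom-watered only. Ratings on a 0–100 phytotoxicity scale were taken at day 14.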

[14] = tested on: sicklepod (Cassia obtusifolia, CASOB); assay: as above; conditions: post-emerge, 14 days after application, rating scale 0-100
In short: as §4

[15] = tested on: green foxtail (Setaria viridis, SETVI); assay: as above; conditions: post-emerge, 14 days after application, rating scale 0-100
In short: as §4

[16] = tested on: large crabgrass (Digitaria sanguinalis, DIGSA); assay: as above; conditions: post-emerge, 14 days after application, rating scale 0-100
In short: as §4

[17] = tested on: ivyleaf morningglory (Ipomoea hederacea, IPOHE); assay: as above; conditions: post-emerge, 14 days after application, rating scale 0-100
In short: as §4

[18] = tested on: redroot pigweed (Amaranthus retroflexus, AMARE); assay: as above; conditions: post-emerge, 14 days after application
In short: as §4

[19] = tested on: velvetleaf (Abutilon theophrasti, ABUTH); assay: as above; conditions: post-emerge, 14 days after application, rating scale 0-100
In short: as §4

[20] = tested on: barnyardgrass (Echinochloa crus-galli, ECHCG); assay: as above; conditions: post-emerge, 14 days after application, rating scale 0-100
In short: as §4

[21] = tested on: lambsquarters (Chenopodium album, CHEAL); assay: as above; conditions: post-emerge, 14 days after application, rating scale 0-100
In short: as §4

[22] = tested on: redroot pigweed (Amaranthus retroflexus, AMARE); assay: Pre-emerge test, greenhouse herbicide activity screening; conditions: phytotoxicity rating 0-100, 14 days after application
In short: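 Visual ratings on a 0-100 scale (0 no damage, 100 all plants dead) were taken at 14 days after treatment. Rates of 15-1000 g ai/ha in acetone, 187 l/ha, were sprayed onto soil one day after planting (pre-emerge) or onto 2-3 leaf plants with 0.25% v/v surfactant (post-emerge).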

## CCc1ccc(COC(=O)Nc2c(OC)c(Cl)cc(F)c2-n2c(=O)cc(C(F)(F)F)n(C)c2=O)cc1 [4-31]
[1]; 63 g ai/ha
  phytotoxicity rating CORN (crop damage): 10
[1]; 250 g ai/ha
  phytotoxicity rating CORN (crop damage): 25
[2]; 63 g ai/ha
  phytotoxicity rating RICE (crop damage): 20
[2]; 250 g ai/ha
  phytotoxicity rating RICE (crop damage): 40
[3]; 63 g ai/ha
  Pre-emerge Herbicidal Activity CORN: 0
[3]; 250 g ai/ha
  Pre-emerge Herbicidal Activity CORN: 10
[4]; 63 g ai/ha
  Pre-emerge Herbicidal Activity RICE: 10
[4]; 250 g ai/ha
  Pre-emerge Herbicidal Activity RICE: 30
[5]; 63 g ai/ha
  Pre-emerge Herbicidal Activity SORHA: 10
[5]; 250 g ai/ha
  Pre-emerge Herbicidal Activity SORHA: 20
[6]; 63 g ai/ha
  Pre-emerge Herbicidal Activity CASOB: 0
[6]; 250 g ai/ha
  Pre-emerge Herbicidal Activity CASOB: 10
[7]; 63 g ai/ha
  Pre-emerge Herbicidal Activity SETVI: 90
[7]; 250 g ai/ha
  Pre-emerge Herbicidal Activity SETVI: 100
[8]; 63 g ai/ha
  Pre-emerge Herbicidal Activity DIGSA: 50
[8]; 250 g ai/ha
  Pre-emerge Herbicidal Activity DIGSA: 100
[9]; 63 g ai/ha
  Pre-emerge Herbicidal Activity IPOHE: 0
[9]; 250 g ai/ha
  Pre-emerge Herbicidal Activity IPOHE: 40
[10]; 63 g ai/ha
  Pre-emerge Herbicidal Activity ABUTH: 30
[10]; 250 g ai/ha
  Pre-emerge Herbicidal Activity ABUTH: 100
[11]; 63 g ai/ha
  Pre-emerge Herbicidal Activity ECHCG: 10
[11]; 250 g ai/ha
  Pre-emerge Herbicidal Activity ECHCG: 30
[12]; 63 g ai/ha
  Pre-emerge Herbicidal Activity CHEAL: 90
[12]; 250 g ai/ha
  Pre-emerge Herbicidal Activity CHEAL: 100
[13]; 63 g ai/ha
  phytotoxicity rating SORHA: 0
[13]; 250 g ai/ha
  phytotoxicity rating SORHA: 10
[14]; 63 g ai/ha
  phytotoxicity rating CASOB: 10
[14]; 250 g ai/ha
  phytotoxicity rating CASOB: 30
[15]; 63 g ai/ha
  phytotoxicity rating SETVI: 20
[15]; 250 g ai/ha
  phytotoxicity rating SETVI: 40
[16]; 63 g ai/ha
  phytotoxicity rating DIGSA: 0
[16]; 250 g ai/ha
  phytotoxicity rating DIGSA: 10
[17]; 63 g ai/ha
  phytotoxicity rating IPOHE: 100
[17]; 250 g ai/ha
  phytotoxicity rating IPOHE: 100
[18]; 63 g ai/ha, rating scale 0-100 (0 no damage, 100 complete death)
  phytotoxicity rating AMARE: 100
[18]; 250 g ai/ha, rating scale 0-100
  phytotoxicity rating AMARE: 100
[19]; 63 g ai/ha
  phytotoxicity rating ABUTH: 100
[19]; 250 g ai/ha
  phytotoxicity rating ABUTH: 100
[20]; 63 g ai/ha
  phytotoxicity rating ECHCG: 10
[20]; 250 g ai/ha
  phytotoxicity rating ECHCG: 10
[21]; 63 g ai/ha
  phytotoxicity rating CHEAL: 100
[21]; 250 g ai/ha
  phytotoxicity rating CHEAL: 100
[22]; 63 g ai/ha
  Pre-emerge Herbicidal Activity AMARE: 100
[22]; 250 g ai/ha
  Pre-emerge Herbicidal Activity AMARE: 100
